From PubChem BioAssay AID743303 (Broad Institute, 2014)
Several values for one entry are separate records, joined by “and”; a condition that tells them apart may be missing. Identical values can stand only once. Activity calls are given as the source filed them. The rule behind the calls is not given here.

Test system: not listed separately
Assay: fungal lysis via adenylate kinase leakage – AK release, plate reader, dry powder, set 2, dose response (AID 743303)
Settings: C. neoformans cell lysis, adenylate kinase release; at 15 µM (top of the series)
In the case of `c1ccc(-c2ccc(OCCn3cnc4ccccc43)cc2)cc1`, the cell lysis activity is reported as 6.2% (inactive).
In the case of `COc1ccccc1OCCn1c(=S)[nH]c2ccccc21`, the cell lysis activity is reported as -4.68% (inactive).
With `Cc1ccc2c(c1)[nH]c(=S)n2CCOc1ccccc1` the cell lysis activity was 10.9% (inactive).
With `c1ccc2c(c1)ncn2CCOc1ccc2c(c1)CCC2` the cell lysis activity was 33.8% (inactive).
In the case of `Clc1ccc(OCCn2cnc3ccccc32)c(Cl)c1`, the cell lysis activity is reported as -34% (inactive).
With `CS(=O)(=O)c1ccc(OCCn2cnc3ccccc32)cc1` the cell lysis activity was -28.4% (inactive).
With `CSc1nc2ccccc2n1CCOc1ccc(C)cc1` the cell lysis activity was 16.4% (inactive).
For `Cc1ccc(C(C)C)c(OCCn2c(NC#N)nc3ccccc32)c1`, the cell lysis activity was -24% (inactive).
With `CSc1nc2ccccc2n1CCOc1cc(C)ccc1C(C)C` the cell lysis activity was -20.1% (inactive).
For `COc1cccc(OCCn2cnc3ccccc32)c1`, the cell lysis activity was -2.74% (inactive).
For `COc1cc(C)ccc1OCCn1cnc2ccccc21`, the cell lysis activity was -57.7% (inactive).
For `CC(C)Oc1ccc(OCCn2c(=S)[nH]c3ccccc32)cc1`, the cell lysis activity was 26.4% (inactive).
In the case of `Fc1ccc(OCCn2c(=S)[nH]c3ccccc32)cc1`, the cell lysis activity is reported as -65.4% (inactive).
For `Cc1ccc(C(C)C)c(OCCn2c(=O)[nH]c3ccccc32)c1`, the cell lysis activity was -24.5% (inactive).
For `O=S(=O)(c1ccc(OCCn2cnc3ccccc32)cc1)N1CCOCC1`, the cell lysis activity was -15% (inactive).

Test system: C. neoformans cell lysis, adenylate kinase release
Assay: as above
Settings: not given
Compound `Cc1cc2ncn(CCOc3ccc4c(c3)CCC4)c2cc1C` has an AC40 of 4.6 µM.
For `CC(C)Oc1cccc(OCCn2cnc3ccccc32)c1`, the AC40 was > 15 µM (inactive).
In the case of `c1ccc(COc2ccc(OCCn3cnc4ccccc43)cc2)cc1`, the AC40 is reported as > 15 µM (inactive).
For `COc1ccc(OCCn2cnc3ccccc32)cc1`, the AC40 was > 15 µM (inactive).
With `OCc1nc2ccccc2n1CCOc1ccccc1` the AC40 was > 15 µM (inactive).
For `Cc1cccc(OCCn2c(=S)[nH]c3c(F)cccc32)c1`, the AC40 was 3.23 µM and 1.51 µM.
Work on `CC(C)(C)c1ccc(OCCn2c(CO)nc3ccccc32)cc1` yielded an AC40 of 14.2 µM.
For `Fc1ccc2c(c1)[nH]c(=S)n2CCOc1ccccc1`, the AC40 was 2.83 µM and 6.57 µM.
`Cc1ccc(C(C)C)c(OCCn2c(=S)[nH]c3ccccc32)c1` gave an AC40 of 9.17 µM.
In the case of `CCCc1nc2ccccc2n1CCOc1ccccc1`, the AC40 is reported as 7.46 µM.
For `Cc1cccc(OCCn2c(=S)[nH]c3cc(F)ccc32)c1`, the AC40 was 2.42 µM and 3.03 µM.
In the case of `Cc1cc2ncn(CCOc3ccccc3)c2cc1C`, the AC40 is reported as 10.1 µM.
In the case of `CC(C)(C)c1ccc(OCCn2cnc3ccccc32)c(Cl)c1`, the AC40 is reported as > 15 µM (inactive).
In the case of `CC(C)(C)c1ccc(OCCn2cnc3ccccc32)cc1`, the AC40 is reported as 1.46 µM.
With `Cc1ccc(OCCn2cnc3cc(C)c(C)cc32)cc1` the AC40 was 1.94 µM.
For `CCCCc1nc2ccccc2n1CCOc1ccccc1`, the AC40 was 6.27 µM.
In the case of `Cc1ccc(C(C)C)c(OCCn2c(N)nc3ccccc32)c1`, the AC40 is reported as > 15 µM (inactive).
For `Clc1ccc(OCCn2cnc3ccccc32)cc1`, the AC40 was > 15 µM (inactive).
In the case of `CC(C)Oc1ccc(OCCn2cnc3ccccc32)cc1`, the AC40 is reported as > 15 µM (inactive).
For `COCc1nc2ccccc2n1CCOc1ccc(C(C)(C)C)cc1`, the AC40 was > 15 µM (inactive).
In the case of `CSc1nc2ccccc2n1CCOc1ccccc1`, the AC40 is reported as > 15 µM (inactive).
For `Cc1cc2ncn(CCOc3ccccc3C)c2cc1C`, the AC40 was 2.42 µM.
For `FC(F)(F)c1cccc(OCCn2cnc3ccccc32)c1`, the AC40 was > 15 µM (inactive).
With `Cc1ccc(C(C)C)c(OCCn2c(CO)nc3ccccc32)c1` the AC40 was > 15 µM (inactive).
With `Fc1cccc2c1[nH]c(=S)n2CCOc1ccccc1` the AC40 was 13.8 µM.
For `COc1ccccc1OCCn1c(SC)nc2ccccc21`, the AC40 was > 15 µM (inactive).
Compound `Cc1ccccc1OCCn1cnc2ccccc21` has an AC40 of 15 µM.
`CC(C)c1ccccc1NCCn1c(=S)[nH]c2ccccc21` gave an AC40 of 3.78 µM.
Compound `Cc1ccc(OCCn2cnc3ccccc32)c(C(C)C)c1` has an AC40 of 4.09 µM.
In the case of `CCSc1nc2ccccc2n1CCOc1ccccc1`, the AC40 is reported as > 15 µM (inactive).
Compound `NCC(=O)Nc1ccc(-n2nc(C(F)(F)F)cc2-c2ccc3c(ccc4ccccc43)c2)cc1` has an AC40 of 5 µM.
`S=c1[nH]c2cc(Cl)ccc2n1CCOc1ccccc1` gave an AC40 of 2.57 µM.
In the case of `CC(C)c1ccccc1OCCn1c(=S)[nH]c2ccccc21`, the AC40 is reported as 1.25 µM.
In the case of `Cc1cccc(OCCn2c(=S)[nH]c3ccc(C(F)(F)F)cc32)c1`, the AC40 is reported as > 15 µM (inactive).
Work on `S=c1[nH]c2cccc(Cl)c2n1CCOc1ccccc1` yielded an AC40 of 2.83 µM.
Compound `Cc1cccc(OCCn2c(=S)[nH]c3ccccc32)c1` has an AC40 of 1.38 µM.
For `CCc1nc2ccccc2n1CCOc1ccccc1`, the AC40 was > 15 µM (inactive).
For `Cc1ccc(OCCn2cnc3ccccc32)c(C)c1`, the AC40 was > 15 µM (inactive).
In the case of `Clc1ccccc1OCCn1cnc2ccccc21`, the AC40 is reported as > 15 µM (inactive).
`Cc1cccc(OCCn2cnc3ccccc32)c1` gave an AC40 of 12.8 µM.
